From patent US9963462B2 (priority 2015, dated 2018)

Assays:
[1] = target: SNAP-hSPR (sepiapterin reductase, SPR) (Homo sapiens, UniProt P35270); assay: biochemical; assay type: binding; settings: terbium labelled SNAP-hSPR / SSZ labelled SNAP-EGFP; read-out: hTR-FRET IC50
[2] = test system: BH4 levels in SK-N-BE (2) cells; assay: SKN-N-BE (2) cellular assay, BH4 levels by LC-MS; assay type: cell-based; settings: Homo sapiens, SKNBE2, read-out: SK-N-BE(2) IC50, SK-N-BE (2) cells, BH4 levels by LC-MS
Experimental: SKN-N-BE(2) Cellular Assay: SK-N-BE (2) cells were seeded in sterile, 96-well plates and incubated for 12-24 hours at 37° C. with 5% CO2 supply. Media was removed and fresh DMEM/F-12 media (containing Glutamine & Pen/Strep but no FBS) was added. Compounds (at different concentrations) were added to different wells. The plates were then incubated for 6-48 hours at 37° C. with 5% CO2 supply. Plates were then centrifuged and the supernatant was removed. The plates were then optionally washed once with PBS. They were then sealed and stored at −80° C. or immediately used. The cells were lysed and the level of BH4 was assessed by LC-MS.
Compounds were assayed for SPR inhibitory activity using a SKN-N-BE (2) cellular assay according to the following procedure. SK-N-BE (2) cells were seeded in sterile, 96-well plates and incubated for 12-24 hours at 37° C. with 5% CO2 supply. Media was removed and fresh DMEM/F-12 media (containing Glutamine & Pen/Strep but no FBS) was added. Compounds (at different concentrations) were added to different wells. The plates were then incubated for 6-48 hours at 37° C. with 5% CO2 supply. Plates were then centrifuged and the supernatant was removed. The plates were then optionally washed once with PBS. They were then sealed and stored at −80° C. or immediately used in the next step. The cells were lysed and the levels of BH4 were assessed by LC-MS.

Sequence of SNAP-hSPR (sepiapterin reductase, SPR) (P35270 whole entry): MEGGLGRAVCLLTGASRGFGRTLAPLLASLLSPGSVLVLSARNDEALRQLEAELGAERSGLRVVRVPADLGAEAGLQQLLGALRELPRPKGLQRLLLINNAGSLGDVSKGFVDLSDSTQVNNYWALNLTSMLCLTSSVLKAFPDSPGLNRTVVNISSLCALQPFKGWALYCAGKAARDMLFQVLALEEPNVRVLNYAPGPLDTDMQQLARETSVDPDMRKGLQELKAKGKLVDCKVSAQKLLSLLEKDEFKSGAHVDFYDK

Compound | IC50 [1] [nM] | IC50 [2] [nM]
O=C(c1cnn(-c2nc3c(c(=O)[nH]2)CCC3)c1)N1CCC(c2c[nH]c3ccccc23)CC1 [Q-0702] | 2 | 32
Cc1c(C(=O)N2CCC(CC(F)(F)F)CC2)cnn1-c1nc2ccsc2c(=O)[nH]1 [Q-0704] | 2 | 200
O=C(c1cnn(-c2nc3c(c(=O)[nH]2)CCC3)c1)N1CCC2(CC1)CC2 [Q-0705] | 2 | 43
O=C(c1cnn(-c2nc3c(c(=O)[nH]2)CCC3)c1)N1CCC(C2CC2)CC1 [Q-0706] | 2 | 30
O=C(c1cnn(-c2nc3c(c(=O)[nH]2)CCC3)c1)N1CCC(c2nc3cc(F)ccc3s2)CC1 [Q-0707] | 5 | 300
O=C(c1cnn(-c2nn3cccc3c(=O)[nH]2)c1)N1CCC2(CC1)CC2 [Q-0708] | 1 | 97
O=C(c1cnn(-c2nn3cccc3c(=O)[nH]2)c1)N1CCC(C2CC2)CC1 [Q-0709] | 1 | 28
CC(C)(C#N)C1CCN(C(=O)c2cnn(-c3nc4c(c(=O)[nH]3)CCC4)c2)CC1 [Q-0710] | 2 | 200
O=C(c1cnn(-c2nc3ccsc3c(=O)[nH]2)c1)N1CCC(C2CC2)CC1 [Q-0711] | 2 | 86
O=C(c1cnn(-c2nc3ccsc3c(=O)[nH]2)c1)N1CCC(CC(F)(F)F)CC1 [Q-0712] | 2 | 300
O=C(c1cnn(-c2nn3cccc3c(=O)[nH]2)c1)N1CCC(CC(F)(F)F)CC1 [Q-0713] | 1 | 200
Cc1c(C(=O)N2CCNCC2)cnn1-c1nc2c(c(=O)[nH]1)CCC2 [Q-0714] | 30 | 8100
Cc1c(C(=O)N2CCN(c3ccc(F)cc3F)CC2)cnn1-c1nn2cccc2c(=O)[nH]1 [Q-0715] | 2 | 97
O=C(c1cnn(-c2nn3cccc3c(=O)[nH]2)c1)N1CCC(S(=O)(=O)c2ccc(F)c(F)c2)CC1 [Q-0716] | 2 | 400
O=C(c1cnn(-c2nc3c(c(=O)[nH]2)CCC3)c1)N1CCC(c2nc3ccc(F)cc3s2)CC1 [Q-0718] | 4 | 200
O=C(c1cnn(-c2nn3cccc3c(=O)[nH]2)c1)N1CCC(C(O)(C(F)(F)F)C(F)(F)F)CC1 [Q-0719] | 2 | 200
CC(C)(C#N)C1CCN(C(=O)c2cnn(-c3nn4cccc4c(=O)[nH]3)c2)CC1 [Q-0720] | 1 | 300
Cc1c(C(=O)N2CCN(C)CC2)cnn1-c1nc2c(c(=O)[nH]1)CCC2 [Q-0722] | 20 | 3300
Cc1c(C(=O)N2CCN(C(=O)OC(C)(C)C)CC2)cnn1-c1nc2c(c(=O)[nH]1)CCC2 [Q-0723] | 3 | 200
Cc1c(C(=O)N2CCC(CC(F)(F)F)CC2)cnn1-c1nc2sccc2c(=O)[nH]1 [Q-0724] | 2 | 200
CCC1(C#N)CCN(C(=O)c2cnn(-c3nc4c(c(=O)[nH]3)CCC4)c2)CC1 [Q-0725] | 1 | 100
N#CC1(c2ccccc2)CCN(C(=O)c2cnn(-c3nc4c(c(=O)[nH]3)CCC4)c2)CC1 [Q-0726] | 1 | 74
Cc1c(C(=O)N2CCC(C3CC3)CC2)cnn1-c1nn2cccc2c(=O)[nH]1 [Q-0727] | 1 | 81
CN(C(=O)OC(C)(C)C)[C@@H]1CCN(C(=O)c2cnn(-c3nn4cccc4c(=O)[nH]3)c2)C1 [Q-0730] | 1 | 200
Cc1c(C(=O)N2CCN(C)c3ccccc32)cnn1-c1nc2c(c(=O)[nH]1)CCC2 [Q-0731] | 2 | 53

Compound | IC50 [1] [nM] | IC50 [2] [nM]
O=C(c1ccn(-c2nc3c(c(=O)[nH]2)CCC3)c1)N1CCC(C(F)(F)F)CC1 [Q-0732] | 1 | 100
O=C(c1cnn(-c2nn3cccc3c(=O)[nH]2)c1)N1CCN(c2ccc(F)cc2F)CC1 [Q-0734] | 4 | 300
O=C(c1cnn(-c2nc3c(c(=O)[nH]2)CCC3)c1)N1CCN(c2ccc(F)cc2F)CC1 [Q-0735] | 3 | 95
Cc1c(C(=O)N2CC[C@@H](N(C)C(=O)OC(C)(C)C)C2)cnn1-c1nn2cccc2c(=O)[nH]1 [Q-0736] | 2 | 200
O=C(c1ccn(-c2nn3cccc3c(=O)[nH]2)c1)N1CCC(C(F)(F)F)CC1 [Q-0738] | 1 | 100
Cc1c(C(=O)N2C3CCC2CN(C(=O)OC(C)(C)C)C3)cnn1-c1nn2cccc2c(=O)[nH]1 [Q-0739] | 2 | 300
O=C(c1cnn(-c2nn3cc(F)cc3c(=O)[nH]2)c1)N1CCC(CC(F)(F)F)CC1 [Q-0741] | 4 | 400
O=C(c1cnn(-c2nc3c(c(=O)[nH]2)CCC3)c1)N1CCN2CCC[C@@H]2C1 [Q-0743] | 4 | 400
O=C(c1cnn(-c2nc3c(c(=O)[nH]2)CCC3)c1)N1CCC(CC(F)(F)F)CC1 [Q-0744] | 3 | 100
Cc1c(C(=O)N2C3CCC2CN(C(=O)OC(C)(C)C)C3)cnn1-c1nc2c(c(=O)[nH]1)CCC2 [Q-0745] | 4 | 200
CCC1(C#N)CCN(C(=O)c2cnn(-c3nn4cc(F)cc4c(=O)[nH]3)c2)CC1 [Q-0746] | 4 | 600
Cc1c(C(=O)N2CCC(CC(F)(F)F)CC2)cnn1-c1nn2cc(F)cc2c(=O)[nH]1 [Q-0747] | 8 | 800
Cc1c(C(=O)N2CCC3(CN(C(=O)OC(C)(C)C)C3)C2)cnn1-c1nn2cccc2c(=O)[nH]1 [Q-0748] | 4 | 900
Cc1c(C(=O)N2CC(c3ccc(F)c(F)c3)C2)cnn1-c1nc2c(c(=O)[nH]1)CCC2 [Q-0749] | 3 | 50
O=C(c1cnn(-c2nc3sccc3c(=O)[nH]2)c1)N1CCC(C2CC2)CC1 [Q-0751] | 3 | 200
O=C(c1cnn(-c2nc3sccc3c(=O)[nH]2)c1)N1CCC(CC(F)(F)F)CC1 [Q-0752] | 4 | 500
O=C(c1cnn(-c2nc3sccc3c(=O)[nH]2)c1)N1CCC(C(F)(F)F)CC1 [Q-0753] | 2 | 200
O=C(c1cnn(-c2nc3sccc3c(=O)[nH]2)c1)N1CCC(c2c[nH]c3ccccc23)CC1 [Q-0754] | 9 | 100
O=C(c1cnn(-c2nc3sccc3c(=O)[nH]2)c1)N1CCN2CCC[C@@H]2C1 [Q-0755] | 4 | 500
Cc1c(C(=O)N2CCN(C)CC2)cnn1-c1nn2cccc2c(=O)[nH]1 [Q-0756] | 4 | 800
CC1CCN(C(=O)c2cnn(-c3nn4cccc4c(=O)[nH]3)c2C2CC2)CC1 [Q-0757] | 2 | 200
O=C(c1cnn(-c2nn3c(F)ccc3c(=O)[nH]2)c1)N1CCC(CC(F)(F)F)CC1 [Q-0758] | 2 | 90
Cc1c(C(=O)N2CCN(C)c3ccccc32)cnn1-c1nn2cccc2c(=O)[nH]1 [Q-0759] | 1 | 200
Cc1c(C(=O)N2CC3(CCN(C(=O)OC(C)(C)C)C3)C2)cnn1-c1nn2cccc2c(=O)[nH]1 [Q-0762] | 2 | 200
Cc1c(C(=O)N2CCC(C(F)(F)F)CC2)cnn1-c1nc2c(c(=O)[nH]1)CC2 [Q-0765] | 5 | 300
